In patent EP3300715A1, “USE OF DIALKYLCARBONATES OF BRANCHED ALCOHOLS AS DISPERSION AGET” (BASF SE, priority 2016, dated 2018):

Test: Pigment dispersion test: medium added dropwise to 10 g pigment until a paste forms; maximum % pigment in the medium
Format: physicochemical
Details: medium added dropwise to 10 g pigment (Eisenoxid, Titanoxid) until paste, no excess medium; compared with other media; shown in figure
From the text: Es hat sich überraschend gezeigt, dass die erfindungsgemäß verwendeten Dialkylcarbonate gegenüber anderen Medien hervorragende Dispersionen mit Feststoffen bilden.
Das Experiment wurde wie folgt durchgeführt. Das Medium wurde tropfenweise zu 10 g Pigment (grau = Eisenoxid, dunkelgrau = Titanoxid), bis sich eine Paste gebildet hatte (kein Medium im Überschuss). Die folgende Rechnung entspricht der maximalen Menge Pigment in prozent, die in das jeweilige Medium gegeben werden kann: % Pigment = m(Pigment)/m(Pigment) + m(Medium) × 100 [formula]

CCCCCC(CCC)COC(=O)OCC(CCC)CCCCC (stereo not shown) [Di-(2-Propyl-1-heptyl)carbonat]
Pigmentkonzentrationen (% Pigment, maximale Menge Pigment im Medium): höchsten Pigmentkonzentrationen
